pIC50: −log10 of the molar value. Where two headings read alike, the source gives them in different places.
Assays:
[1] = biological target: T1, HIV protease (Human immunodeficiency virus type 1 group M subtype B, UniProt P04585); experiment: biochemical
T1 construct: HIV protease is diluted in the assay buffer to a final enzyme concentration of 12.3 nanomolar, based on a molecular weight of 10,780
Experimental: The enzyme method is described below. […] The positive control is MVT-101 (Miller, M. et al, Science, 246, 1149 (1989)] The assay conditions are as follows:
Assay buffer: 20 mM sodium phosphate, pH 6.4
The above described substrate is dissolved in DMSO, then diluted 10 fold in assay buffer. Final substrate concentration in the assay is 80 μM.
The final concentration of DMSO is 14% and the final concentration of glycerol is 18%. The test compound is dissolved in DMSO and diluted in DMSO to 10× the test concentration; 10 μl of the enzyme preparation is added, the materials mixed and then the mixture is incubated at ambient temperature for 15 minutes. The enzyme reaction is initiated by the addition of 40 μl of substrate. The increase in fluorescence is monitored at 4 time points (0, 8, 16 and 24 minutes) at ambient temperature. Each assay is carried out in duplicate wells.

[2] = Intrinsic toxicity of test compound in CEM cells without virus (MTT); assay type: cell-based; settings: human, Table 16, read-out: TD50 (the source's name)
Excerpt: Methods, 20, 309-321 (1988).

[3] = Table 15A, second part (Ex., Table, Entry)
[4] = Table 15A, @ 1 uM, read-out: % inhib
[5] = Table 15A, @ 10 uM, read-out: % inhib
[6] = Table 5B, @ 1 μM, read-out: % inhibition

CC(C)CCN(C[C@@H](O)[C@H](Cc1ccccc1)NC(=O)C(N)C(C)(C)C)S(=O)(=O)c1ccccc1 (some centres unmarked) [Table 11 Entry 1]
pIC50 [1, 3]: 6.89

CC(C)CCN(C[C@@H](O)[C@H](Cc1ccccc1)NC(=O)OCc1ccccc1)S(C)(=O)=O [Table 1A Entry 41]
inhibition at 1 µM [1, 4]: 24%
inhibition at 10 µM [1, 5]: 74%

CC(C)CN(C[C@@H](O)[C@H](Cc1ccccc1)NC(=O)OCc1ccccc1)S(=O)(=O)c1ccc(F)cc1 [Table 1a Entry 7]
pIC50 [1, 3]: 8.02

CC(C)CCN(C[C@@H](O)[C@H](Cc1ccccc1)NC(=O)[C@H](CC(N)=O)NC(=O)c1ccc2ccccc2n1)S(C)(=O)=O [Table 15A Entry 4]
pIC50 ([1]; Table 15A, first part): 7.57

CC(C)CCN(C[C@@H](O)[C@H](Cc1ccccc1)NC(=O)OCc1ccccc1)S(=O)(=O)c1ccccc1[N+](=O)[O-] [Table 1a Entry 3]
inhibition at 1 µM [1, 4]: 38%
inhibition at 10 µM [1, 5]: 79%

CC(C)CCN(C[C@@H](O)[C@H](Cc1ccccc1)NC(=O)OCc1ccccc1)S(=O)(=O)CCl [Table 1A Entry 52]
inhibition at 1 µM [1, 4]: 39%
inhibition at 10 µM [1, 5]: 81%

CCc1ccccc1C(=O)N[C@@H](Cc1ccccc1)[C@H](O)CN(CC(C)C)S(=O)(=O)c1ccc(OC)cc1 [Table 16 Entry 31]
pIC50 ([1]; Table 16, enzyme assay): 8.00

CC(C)CCN(C[C@@H](O)[C@H](Cc1ccccc1)NC(=O)[C@@H](NC(=O)CBr)C(C)(C)C)S(=O)(=O)c1ccccc1 [Table 12 Entry 10]
pIC50 [1, 3]: 8.48

CC(C)CN(C[C@@H](O)[C@H](Cc1ccccc1)NC(=O)OCc1ccccc1)S(C)(=O)=O [Table 1A Entry 51]
inhibition at 1 µM [1, 4]: 31%
inhibition at 10 µM [1, 5]: 76%

CC(C)CCN(C[C@@H](O)[C@H](Cc1ccccc1)NC(=O)[C@@H](NC(=O)CN(C)C)C(C)(C)C)S(C)(=O)=O [Table 16 Entry 6]
CC50 [2]: 0.425 µM

CC(C)CCN(C[C@@H](O)[C@H](Cc1ccccc1)NC(=O)OCc1ccccc1)S(=O)(=O)c1ccccc1 [drawing 326]
pIC50 ([1]; Table 16, enzyme assay): 7.80

CC(C)CCN(C[C@@H](O)[C@H](Cc1ccccc1)NC(=O)C(NC(=O)CN(C)C)C(C)(C)C)S(C)(=O)=O (some centres unmarked) [Table 3 Entry 2]
inhibition at 0.1 µM ([1]; Table 15A, @ 0.1 uM): 38%
inhibition at 1 µM [1, 4]: 90%

CC(C)CCN(C[C@@H](O)[C@H](Cc1ccccc1)NC(=O)c1ccccc1)S(=O)(=O)c1ccccc1 [Table 16 Entry 8]
CC50 [2]: 0.024 µM

CNC(=O)C[C@H](NC(=O)c1ccc2ccccc2n1)C(=O)N[C@@H](Cc1ccccc1)[C@H](O)CN(CCC(C)C)S(=O)(=O)c1ccccc1 [Table 16 Entry 7]
CC50 [2]: 0.039 µM

CC(C)CCN(C[C@@H](O)[C@H](Cc1ccccc1)NC(=O)OCc1ccccc1)S(=O)(=O)c1ccccc1 [drawing 314]
pIC50 ([1]; Table 15A, first part): 7.80

CCC(C)[C@H](NC(=O)CN(C)C)C(=O)N[C@@H](Cc1ccccc1)[C@H](O)CN(CCC(C)C)S(=O)(=O)c1ccccc1 (some centres unmarked) [Table 16 Entry 14]
CC50 [2]: 55 µM

COc1ccc(S(=O)(=O)N(CC(C)C)CC(O)C(Cc2ccccc2)NC(=O)c2ccccc2OC)cc1 (centres unmarked) [Table 5A Entry 29]
pIC50 ([1]; Table 5B): 6.72

CC(C)CCN(C[C@@H](O)[C@H](Cc1ccccc1)NC(=O)OCc1ccccc1)S(=O)(=O)Cc1ccccc1 [Table 1a Entry 6]
inhibition at 10 µM [1, 5]: 36%

CC(C)CCN(C[C@@H](O)[C@H](Cc1ccccc1)NC(=O)OCc1ccccc1)S(=O)(=O)c1ccc2ccccc2c1 [Table 1a Entry 4]
pIC50 [1, 3]: 7.80

COc1ccc(S(=O)(=O)N(CC(C)C)C[C@@H](O)[C@H](Cc2ccccc2)NC(=O)c2ccccc2Cl)cc1 [Table 16 Entry 30]
pIC50 ([1]; Table 16, enzyme assay): 8.22

CC(C)CCN(C[C@@H](O)[C@H](Cc1ccccc1)NC(=O)[C@H](CC(N)=O)NC(=O)c1ccc2ccccc2n1)S(C)(=O)=O [Table 16 Entry 4]
pIC50 ([1]; Table 16, enzyme assay): 7.57

COc1ccc(S(=O)(=O)N(CC(C)C)CC(O)C(Cc2ccccc2)NC(=O)c2ccccc2S(C)(=O)=O)cc1 (centres unmarked) [Table 5A Entry 17]
inhibition at 10 µM ([1]; Table 5B, @ 10 μM, read-out: % inhibition): 59%

CC(C)CCN(C[C@@H](O)[C@H](Cc1ccccc1)NC(=O)OCc1ccccc1)S(=O)(=O)C(F)(F)F [Table 1A Entry 50]
inhibition at 1 µM [1, 4]: 42%
inhibition at 10 µM [1, 5]: 89%

COc1ccc(S(=O)(=O)N(CC(C)C)CC(O)C(Cc2ccccc2)NC(=O)c2ccccc2CS(C)(=O)=O)cc1 (centres unmarked) [Table 5A Entry 20]
inhibition at 1 µM [1, 6]: 85%

CC(C)CCN(C[C@@H](O)[C@H](Cc1ccccc1)NC(=O)OCc1ccccc1)S(=O)(=O)c1ccccc1 [Table 1A Entry 39]
pIC50 [1, 3]: 7.80

COc1ccc(S(=O)(=O)N(CC(C)C)CC(O)C(Cc2ccccc2)NC(=O)c2ccc(CS(C)(=O)=O)cc2)cc1 (centres unmarked) [Table 5A Entry 22]
inhibition at 1 µM [1, 6]: 63%

COc1ccc(S(=O)(=O)N(CC(C)C)C[C@@H](O)[C@H](Cc2ccccc2)NC(=O)c2ccccc2)cc1 [Table 16 Entry 28]
pIC50 ([1]; Table 16, enzyme assay): 7.85

CC(C)CCN(C[C@@H](O)[C@H](Cc1ccccc1)NC(=O)OCc1ccccc1)S(=O)(=O)c1ccc(F)cc1 [Table 1a Entry 1]
pIC50 [1, 3]: 7.96

COc1ccc(S(=O)(=O)N(CC(C)C)CC(O)C(Cc2ccccc2)NC(=O)c2ccc3[nH]ccc3c2)cc1 (centres unmarked) [Table 5A Entry 5]
pIC50 ([1]; Table 5B): 7.59

From patent publication US5830897A, “α- and β-amino acid hydroxyethylamino sulfonamides useful as retroviral protease inhibitors” (G. D. Searle & Co., priority 1995, dated 1998)
